{
  "source": "patent US20260273033A1",
  "about": "“NOVEL LIPID NANOPARTICLE FORMULATIONS FOR DELIVERY OF NUCLEIC ACIDS” (CureVac SE, priority 2023, published 2026)",
  "key": {"[1]": {"assay": "Immune responses of mRNA vaccines in vivo, DPhyPE versus DSPC as neutral lipid", "conditions": "DPhyPE versus DSPC as neutral lipid in LNP compositions"}, "[2]": {"conditions": "in vivo; cited from earlier work"}},
  "data": [
    {"molecule": "CC(C)CCCC(C)CCCC(C)CCCC(C)CC(=O)OC[C@H](COP(=O)(O)OCCN)OC(=O)CC(C)CCCC(C)CCCC(C)CCCC(C)C", "note": "(stereo partly drawn) [DPhyPE, 1,2-diphytanoyl-sn-glycero-3-phosphoethanolamine]", "values": [
      {"measurement": "immune responses of mRNA vaccines in vivo, neutral lipid comparison", "setting": "[1]", "result": "clear advantage over DSPC"}
    ]},
    {"molecule": "poly(2-methyl-2-oxazoline) [PMOZ]", "values": [
      {"measurement": "accumulation in tissue", "setting": "[2]", "result": "no significant accumulation in tissue"},
      {"measurement": "excretion", "setting": "[2]", "result": "rapidly excreted by the kidney"}
    ]}
  ]
}
